Laboratory results as given in patent US20240057598A1, “USE OF 2-AMINO-3-METHYLHEXANOIC ACID AS PLANT IMMUNITY INDUCER” (NANJING AGRICULTURAL UNIVERSITY, priority 2020, published 2024).

Assays:
P. fluorescens = conditions: cited from earlier work
[1] = test system: tea "Baiye 1" cutting seedlings; test: Effect on amino acid content of tea leaves at normal temperature; assay type: in vivo; design: Amino acid content of tea leaves: unit not given here; conditions: 10 nM, room temperature
Method: At normal temperature, the effect of 2-amino-3-methylhexanoic acid on tea quality was determined using “Baiye 1” cutting seedlings as the tea trees tested. Tea seedlings with relatively consistent growth were transplanted into a plastic pot with a diameter of 18 cm and placed in a greenhouse at a temperature of 25° C. and a humidity of 60%-70% for adaptive growth for about a week. Two concentrations of 0 and 10 nM were set in the experiment, and 0.02% Tween 20 was added as a surfactant. 1 week after transplanting, the stems and leaves of the tea seedlings were sprayed once every 24 h, twice in total. After spray, the tea leaves were placed in a greenhouse at 25° C., and samples were taken on the 1st, 3rd, 5th and 7th days to determine the total amino acid content of one leaf and one bud at the top of tea leaves.

A. ureafaciens = conditions: cited from earlier work
tomato = test: Induced resistance of tomato to high temperature stress; assay type: in vivo
Method: (§1) 2-amino-3-methylhexanoic acid was dissolved in distilled water and diluted with distilled water into solutions of 1 nM, 10 nM, 100 nM and 1,000 nM by gradient. A blank control was additionally set, and 0.02% Tween 20 was added as a surfactant. 4 groups of repetitions were set for each concentration, and a normal temperature blank control was set at the same time. Ryegrass seeds were weighed according to 0.8 g per pot, sowed in a pot with a diameter of 8.5 cm, and planted in a greenhouse at a temperature of 25° C., a humidity of 60%-70%, and a light intensity of 200 μmolm^−2s^−1 (12 h light/12 h dark). On the 8th day of the seedling stage, the ryegrass was sprayed with the 2-amino-3-methylhexanoic acid solutions on the leaves twice in 24 h. 24 h after the second treatment, the plants were transferred to a light incubator at a temperature of 45° C. for conducting high temperature stress treatment for 12 h, and then the plants were taken out and transferred to a greenhouse at a temperature of 25° C. for 7 days of recovery. The injured conditions of the plants were observed and counted, and the heat injury grade was calculated. […] After the counting, the fresh weight of the aboveground part of the plant was weighed, and then the aboveground part was baked in an 85° C. oven for 48 h to determine the dry weight.
Tomato seeds were sowed in small pots, and three tomato seedlings with the same growth condition were transplanted into one pot after emergence. The planting method and conditions were the same as above. When the tomato grew for 18 days in the seedling stage, the experiment was conducted. High temperature stress was conducted at 42° C. for 9 h, and the treatment method and subsequent statistical indexes were the same as those of the above.

ryegrass = test: Induced resistance of ryegrass to high temperature stress; assay type: in vivo; conditions: for Dry weight of overground part / Fresh weight of overground part / Heat injury index: 45° C. 12 h, 7 days recovery
Method: as §1

S. marcescens = conditions: cited from earlier work
E. coli B = conditions: cited from earlier work
wheat = test: Induced resistance of wheat to drought stress (25% PEG-6000); assay type: in vivo; conditions: for Drought injury index / Dry weight Overground part / Dry weight Underground part / Fresh weight Overground part / Fresh weight Underground part / Length of root: wheat, 25% PEG-6000 6 days, 7 days recovery
Method: Wheat was cultured in water in a 6-mesh sieve used as a container according to 50 grains per sieve, and ½ Hoagland nutrient solution was changed every three days. When the wheat grew to the stage of two leaves and one bud, the leaf surface was sprayed with 2-amino-3-methylhexanoic acid solutions, the concentration of the 2-amino-3-methylhexanoic acid was 0, 100 and 1,000 nM, and 0.02% Tween 20 was added as a surfactant. After two days of continuous spraying, the water culture nutrient solution was replaced with ½ Hoagland nutrient solution containing 25% PEG-6000 on the 3rd day for stress treatment. After 6 days of drought stress, rehydration treatment was conducted. After 7 days of recovery growth in a normal nutrient solution, the drought index was observed and determined, and the root length and biomass were determined.
The performance characteristics of drought injury of leaves are similar to those of salt injury. The drought injury rate and the drought injury index were introduced by using the evaluation indexes of salt injury. The formula for calculating the drought injury index is as follows, and the grading standard of drought injury is shown in Table 11.

[2] = 10 nM, 42° C. 9 h, 7 days recovery
[3] = 100 nM, 42° C. 9 h, 7 days recovery
[4] = 1,000 nM, 42° C. 9 h, 7 days recovery
[5] = 100 nM, compared with untreated control group
[6] = 1,000 nM, wheat seedlings, drought stress

Structure (SMILES): CCCC(C)C(N)C(=O)O (stereo not drawn) [2-amino-3-methylhexanoic acid]
- Inhibitory effect (P. fluorescens): no inhibitory effect
- Increase of amino acid content compared with control ([1]; 3rd day): 14%
- Increase of amino acid content compared with control ([1]; 5th day): 26%
- Amino acid content of tea leaves ([1]; day 1): 2.13
- Amino acid content of tea leaves ([1]; day 3): 2.44
- Amino acid content of tea leaves ([1]; day 5): 2.69
- Amino acid content of tea leaves ([1]; day 7): 2.08
- Inhibitory effect (A. ureafaciens): slight inhibitory effect
- Optimum concentration inducing resistance to high temperature stress (tomato): 1,000 nM
- Dry weight of overground part (tomato; [2]): 0.05 ± 0.01b g
- Heat injury index (tomato; [2]): 95
- Dry weight of overground part (tomato; [3]): 0.06 ± 0.02 g·h
- Fresh weight of overground part (tomato; [3]): 0.61 ± 0.16abc g
- Heat injury index (tomato; [3]): 90
- Dry weight of overground part (tomato; [4]): 0.08 ± 0.003ab g
- Heat injury index (tomato; [4]): 60
- Optimal use concentration to alleviate high temperature stress (ryegrass): 100 nM
- Dry weight of overground part (ryegrass; 1 nM): 0.4 ± 0.01bc g
- Fresh weight of overground part (ryegrass; 1 nM): 1.96 ± 0.19b g
- Heat injury index (ryegrass; 1 nM): 70%
- Dry weight of overground part (ryegrass; 10 nM): 0.46 ± 0.04ab g
- Fresh weight of overground part (ryegrass; 10 nM): 2.14 ± 0.095 g
- Heat injury index (ryegrass; 10 nM): 60%
- Dry weight of overground part (ryegrass; 100 nM): 0.44 ± 0.02nb g
- Fresh weight of overground part (ryegrass; 100 nM): 2.60 ± 0.02b g
- Heat injury index (ryegrass; 100 nM): 30%
- Increase of dry weight of aboveground part (ryegrass; [5]): 25%
- Increase of fresh weight of aboveground part (ryegrass; [5]): 162%
- Dry weight of overground part (ryegrass; 1,000 nM): 0.45 ± 0.01ab g
- Fresh weight of overground part (ryegrass; 1,000 nM): 2.42 ± 0.15b g
- Heat injury index (ryegrass; 1,000 nM): 30%
- Inhibitory effect (S. marcescens): no inhibitory effect
- Inhibitory effect (E. coli B): slight inhibitory effect
- Drought injury index (wheat; 100 nM): 50%
- Dry weight Overground part (wheat; 100 nM): 0.79 ± 0.01a
- Dry weight Underground part (wheat; 100 nM): 0.34 ± 0.02a
- Fresh weight Overground part (wheat; 100 nM): 6.71 ± 0.69b
- Fresh weight Underground part (wheat; 100 nM): 3.48 ± 0.40a
- Length of root (wheat; 100 nM): 13.83 ± 0.26b
- Decrease of drought index (wheat; [6]): 36%
- Increase of dry weight of aboveground part (wheat; [6]): 10.00%
- Increase of dry weight of underground part (wheat; [6]): 18.75%
- Increase of fresh weight of aboveground part (wheat; [6]): 35.82%
- Increase of fresh weight of underground part (wheat; [6]): 34.33%
- Increase of root length compared with control group (wheat; [6]): 6%
- Drought injury index (wheat; 1,000 nM): 30%
- Dry weight Overground part (wheat; 1,000 nM): 0.88 ± 0.05a
- Dry weight Underground part (wheat; 1,000 nM): 0.38 ± 0.02a
- Fresh weight Overground part (wheat; 1,000 nM): 8.72 ± 0.59a
- Fresh weight Underground part (wheat; 1,000 nM): 4.46 ± 0.01a
- Length of root (wheat; 1,000 nM): 14.50 ± 0.27a
